Assay results as given in patent publication US11123337B2, “4-methylsulfonyl-substituted piperidine urea compounds” (MYOKARDIA, INC., priority 2015, dated 2021).
Counter-ions that a name gives are not always drawn.

Key:
[1] = target: bovine cardiac myosin (Bos taurus, UniProt Q9BE39); assay: Myosin activation assay (PK/LDH-coupled ATPase, bovine cardiac myofibrils); format: biochemical; conditions: AC20 = concentration at which total response is increased by twenty percent
Summary of the method: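 Values are the concentrations raising the ATPase rate by 20% or 50% over DMSO, from 10-point dose responses fitted with four parameters. Rate is NADH loss at 340 nm via PK/LDH coupling, read 15 min at room temperature, in pH 6.8 PIPES with 50 μM ATP. Bovine cardiac myofibrils were held at pCa ~6 or pCa 10.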

[2] = tested on: adult rat ventricular myocytes; assay: Cardiomyocyte contractility assay (IonOptix edge detection, fractional shortening); format: cell-based; conditions: 1 Hz pacing; for Activity at 3.0 uM (fractional shortening activation over basal): 3.0 uM compound; for Activity at 1.0 uM (fractional shortening activation over basal): 1.0 uM compound; for Activity at 10 uM (fractional shortening activation over basal): 10 uM compound
Protocol: Contractility of adult rat ventricular myocytes is determined by edge detection with an IonOptix contractility system. Aliquots of myocytes in Tyrode buffer (137 mM NaCl, 3.7 mM KCl, 0.5 mM MgCl2, 1.5 mM CaCl2), 4 mM HEPES, 11 mM glucose) are placed in a perfusion chamber (Series 20 RC-27NE; Warner Instruments), allowed to adhere to the coverslip, and then perfused with 37° C. Tyrode buffer. Myocytes are filed stimulated at 1 Hz and 10V. Only myocytes with clear striations, quiescent prior to pacing, with a cell length of 120-180 microns, a basal fractional shortening equal to 3-8% of the cell length, and a contraction velocity greater than 100 microns per second are used for contractility experiments. To determine the response to compounds, myocytes are first perfused for 60 seconds with Tyrodes buffer followed by 5 minutes of compound and a 140 second washout with Tyrodes buffer. Data is continuously recorded using IonOptix software. Contractility data is analyzed using Ionwizard software (IonOptix). For each cell, 10-20 contractility transients were averaged and compared under basal (no compound) and compound-treated conditions. Compound activity is measured by effects on fractional shortening (FS), where fractional shortening is the ratio of the peak length of the cell at contraction divided by the basal cell length normalized to 100% for an untreated cell.

Chain of bovine cardiac myosin (Q9BE39 whole entry): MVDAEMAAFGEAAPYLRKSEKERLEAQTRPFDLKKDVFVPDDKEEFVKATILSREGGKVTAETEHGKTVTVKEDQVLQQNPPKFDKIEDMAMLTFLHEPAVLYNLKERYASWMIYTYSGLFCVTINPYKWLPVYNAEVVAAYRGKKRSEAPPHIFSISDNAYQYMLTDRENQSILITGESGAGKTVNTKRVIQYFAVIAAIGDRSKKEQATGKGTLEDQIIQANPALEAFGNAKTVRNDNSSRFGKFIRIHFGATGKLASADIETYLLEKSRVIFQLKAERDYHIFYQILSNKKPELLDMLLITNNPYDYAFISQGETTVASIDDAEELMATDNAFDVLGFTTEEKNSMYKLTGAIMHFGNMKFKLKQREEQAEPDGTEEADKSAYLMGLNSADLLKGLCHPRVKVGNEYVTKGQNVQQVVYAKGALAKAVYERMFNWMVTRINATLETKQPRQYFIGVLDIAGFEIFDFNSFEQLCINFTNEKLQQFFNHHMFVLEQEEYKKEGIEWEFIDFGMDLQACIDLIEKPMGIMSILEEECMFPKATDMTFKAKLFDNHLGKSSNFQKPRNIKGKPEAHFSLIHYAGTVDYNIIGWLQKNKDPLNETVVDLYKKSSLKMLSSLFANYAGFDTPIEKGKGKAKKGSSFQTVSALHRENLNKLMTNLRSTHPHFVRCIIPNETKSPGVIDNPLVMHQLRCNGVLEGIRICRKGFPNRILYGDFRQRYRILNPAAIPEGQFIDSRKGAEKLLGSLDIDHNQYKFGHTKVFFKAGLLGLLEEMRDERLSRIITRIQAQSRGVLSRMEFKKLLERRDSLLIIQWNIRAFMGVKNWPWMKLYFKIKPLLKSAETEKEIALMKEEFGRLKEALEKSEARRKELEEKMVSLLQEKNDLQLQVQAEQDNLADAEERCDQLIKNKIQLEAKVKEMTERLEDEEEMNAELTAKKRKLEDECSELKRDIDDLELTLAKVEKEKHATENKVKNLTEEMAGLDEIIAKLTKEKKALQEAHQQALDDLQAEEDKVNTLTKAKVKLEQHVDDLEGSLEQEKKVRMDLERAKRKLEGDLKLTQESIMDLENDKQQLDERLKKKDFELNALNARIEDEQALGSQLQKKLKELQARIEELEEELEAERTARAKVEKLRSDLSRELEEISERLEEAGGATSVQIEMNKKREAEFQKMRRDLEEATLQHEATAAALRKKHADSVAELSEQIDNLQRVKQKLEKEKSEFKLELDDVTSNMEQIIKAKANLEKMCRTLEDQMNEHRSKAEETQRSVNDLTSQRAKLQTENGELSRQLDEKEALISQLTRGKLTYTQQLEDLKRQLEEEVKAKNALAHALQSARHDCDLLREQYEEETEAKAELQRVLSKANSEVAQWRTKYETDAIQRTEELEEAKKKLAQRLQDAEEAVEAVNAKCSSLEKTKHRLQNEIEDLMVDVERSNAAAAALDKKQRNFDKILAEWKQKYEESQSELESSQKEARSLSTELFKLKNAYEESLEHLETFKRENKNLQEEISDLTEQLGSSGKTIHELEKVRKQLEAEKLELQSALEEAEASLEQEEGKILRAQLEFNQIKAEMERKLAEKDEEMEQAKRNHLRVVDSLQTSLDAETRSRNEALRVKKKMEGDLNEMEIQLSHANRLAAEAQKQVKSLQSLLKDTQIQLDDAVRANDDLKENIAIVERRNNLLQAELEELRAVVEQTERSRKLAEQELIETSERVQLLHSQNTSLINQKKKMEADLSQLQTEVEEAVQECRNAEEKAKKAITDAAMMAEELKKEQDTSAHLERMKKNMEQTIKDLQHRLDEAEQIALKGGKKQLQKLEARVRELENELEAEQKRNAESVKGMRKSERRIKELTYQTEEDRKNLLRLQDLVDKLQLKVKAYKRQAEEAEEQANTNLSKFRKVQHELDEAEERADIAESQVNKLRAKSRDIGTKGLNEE
Chain of bovine cardiac myosin (P85100 whole entry partner): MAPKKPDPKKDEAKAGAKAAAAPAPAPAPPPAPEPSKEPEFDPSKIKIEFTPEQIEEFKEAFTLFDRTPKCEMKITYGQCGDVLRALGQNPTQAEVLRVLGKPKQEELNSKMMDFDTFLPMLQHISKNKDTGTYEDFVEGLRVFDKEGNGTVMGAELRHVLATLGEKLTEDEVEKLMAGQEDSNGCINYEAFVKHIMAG
Chain of bovine cardiac myosin (Q3SZE5 whole entry partner): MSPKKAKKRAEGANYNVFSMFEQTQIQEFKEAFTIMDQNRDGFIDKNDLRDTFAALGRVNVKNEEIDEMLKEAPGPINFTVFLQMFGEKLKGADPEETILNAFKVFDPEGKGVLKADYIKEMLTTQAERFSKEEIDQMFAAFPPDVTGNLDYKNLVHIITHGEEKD

Structure (SMILES): COc1ccc(S(=O)(=O)C(C)(F)C2CCN(C(=O)Nc3ccon3)CC2)cn1 (centres unmarked) [Compound 246, 4-(1-fluoro-1-((6-methoxypyridin-3-yl)sulfonyl)ethyl)-N-(isoxazol-3-yl)piperidine-1-carboxamide]
- Myosin Activation (AC20) [1]: ++ (++ represents myosin activation value AC20 from 2 μM-5 μM)
- Activity at 3.0 uM (fractional shortening activation over basal) [2]: +++ (+++ represents fractional shortening activation values greater than 50% over basal)

Structure (SMILES): Cn1cc(S(=O)(=O)[C@@](C)(F)C2CCN(C(=O)Nc3ccon3)CC2)c(C(F)F)n1 [Compound 20, (R)-4-(1-((3-(Difluoromethyl)-1-methyl-1H-pyrazol-4-yl)sulfonyl)-1-fluoroethyl)-N-(isoxazol-3-yl)piperidine-1-carboxamide]
- Myosin Activation (AC20) [1]: +++ (+++ represents myosin activation value AC20 < 2 μM)
- Activity at 1.0 uM (fractional shortening activation over basal) [2]: + (+ represents fractional shorting activation <20% over basal)
- Activity at 3.0 uM (fractional shortening activation over basal) [2]: ++ (++ represents fractional shorting activation values from 20% to 50% over basal)

Structure (SMILES): Cn1nc(Cl)cc1S(=O)(=O)C(C)(C)C1CCN(C(=O)Nc2ccon2)CC1 [Compound 129, 4-(2-((3-chloro-1-methyl-1H-pyrazol-5-yl)sulfonyl)propan-2-yl)-N-(isoxazol-3-yl)piperidine-1-carboxamide]
- Myosin Activation (AC20) [1]: +++ (+++ represents myosin activation value AC20 < 2 μM)
- Activity at 3.0 uM (fractional shortening activation over basal) [2]: +++ (+++ represents fractional shortening activation values greater than 50% over basal)

Structure (SMILES): CC(F)(C1CCN(C(=O)Nc2ccnnc2)CC1)S(=O)(=O)c1cccc(F)c1 (centres unmarked) [Compound 6, 4-(1-Fluoro-1-((3-fluorophenyl)sulfonyl)ethyl)-N-(pyridazin-4-yl)piperidine-1-carboxamide trifluoroacetic acid salt]
- Myosin Activation (AC20) [1]: ++ (++ represents myosin activation value AC20 from 2 μM-5 μM)
- Activity at 10 uM (fractional shortening activation over basal) [2]: ++ (++ represents fractional shorting activation values from 20% to 50% over basal)

Structure (SMILES): O=C(Nc1ccnnc1)N1CCC(C(F)(F)S(=O)(=O)c2cccc(F)c2)CC1 [Compound 5, 4-(Difluoro((3-fluorophenyl)sulfonyl)methyl)-N-(pyridazin-4-yl)piperidine-1-carboxamide]
- Myosin Activation (AC20) [1]: ++ (++ represents myosin activation value AC20 from 2 μM-5 μM)
- Activity at 1.0 uM (fractional shortening activation over basal) [2]: ++ (++ represents fractional shorting activation values from 20% to 50% over basal)
- Activity at 10 uM (fractional shortening activation over basal) [2]: +++ (+++ represents fractional shortening activation values greater than 50% over basal)

Structure (SMILES): CC(C)(C1CCN(C(=O)Nc2ccncc2)CC1)S(=O)(=O)c1cccc(F)c1 [Compound 32, 4-(2-((3-fluorophenyl)sulfonyl)propan-2-yl)-N-(pyridin-4-yl)piperidine-1-carboxamide]
- Myosin Activation (AC20) [1]: +++ (+++ represents myosin activation value AC20 < 2 μM)
- Activity at 1.0 uM (fractional shortening activation over basal) [2]: ++ (++ represents fractional shorting activation values from 20% to 50% over basal)

Structure (SMILES): C[C@](F)(C1CCN(C(=O)Nc2ccnc(CO)c2)CC1)S(=O)(=O)c1cccc(F)c1 [Compound 287, (R)-4-(1-fluoro-1-((3-fluorophenyl)sulfonyl)ethyl)-N-(2-(hydroxymethyl)pyridin-4-yl)piperidine-1-carboxamide]
- Myosin Activation (AC20) [1]: +++ (+++ represents myosin activation value AC20 < 2 μM)
- Activity at 1.0 uM (fractional shortening activation over basal) [2]: ++ (++ represents fractional shorting activation values from 20% to 50% over basal)
- Activity at 3.0 uM (fractional shortening activation over basal) [2]: ++ (++ represents fractional shorting activation values from 20% to 50% over basal)

Structure (SMILES): Cn1cc(S(=O)(=O)C(C)(C)C2CCN(C(=O)Nc3ccon3)CC2)c(C(F)F)n1 [Compound 149, 4-(2-((3-(difluoromethyl)-1-methyl-1H-pyrazol-4-yl)sulfonyl)propan-2-yl)-N-(isoxazol-3-yl)piperidine-1-carboxamide]
- Myosin Activation (AC20) [1]: ++ (++ represents myosin activation value AC20 from 2 μM-5 μM)
- Activity at 3.0 uM (fractional shortening activation over basal) [2]: ++ (++ represents fractional shorting activation values from 20% to 50% over basal)

Structure (SMILES): CC(C)(C1CCN(C(=O)Nc2ccnnc2)CC1)S(=O)(=O)c1cccc(F)c1 [Compound 7, 4-(2-((3-fluorophenyl)sulfonyl)propan-2-yl)-N-(pyridazin-4-yl)piperidine-1-carboxamide]
- Myosin Activation (AC20) [1]: +++ (+++ represents myosin activation value AC20 < 2 μM)
- Activity at 1.0 uM (fractional shortening activation over basal) [2]: ++ (++ represents fractional shorting activation values from 20% to 50% over basal)
- Activity at 10 uM (fractional shortening activation over basal) [2]: ++ (++ represents fractional shorting activation values from 20% to 50% over basal)

Structure (SMILES): Cn1nc(C(F)(F)F)cc1S(=O)(=O)[C@@](C)(F)C1CCN(C(=O)Nc2ccon2)CC1 [Compound 18, (R)-4-(1-Fluoro-1-((1-methyl-3-(trifluoromethyl)-1H-pyrazol-5-yl)sulfonyl)ethyl)-N-(isoxazol-3-yl)piperidine-1-carboxamide]
- Myosin Activation (AC20) [1]: +++ (+++ represents myosin activation value AC20 < 2 μM)
- Activity at 1.0 uM (fractional shortening activation over basal) [2]: +++ (+++ represents fractional shortening activation values greater than 50% over basal)

Structure (SMILES): C[C@H](O)c1cc(NC(=O)N2CCC([C@@](C)(F)S(=O)(=O)c3cn(C)nc3C(F)F)CC2)ccn1 [Compound 29, 4-((S)-1-((3-(Difluoromethyl)-1-methyl-1H-pyrazol-4-yl)sulfonyl)-1-fluoroethyl)-N-(2-((S)-1-hydroxyethyl)pyridin-4-yl)piperidine-1-carboxamide]
- Myosin Activation (AC20) [1]: + (+ represents myosin activation value AC20 > 5 μM)

Structure (SMILES): Cn1cc(S(=O)(=O)[C@@](C)(F)C2CCN(C(=O)Nc3ccc(C(N)=O)nc3)CC2)c(C(F)F)n1 [Compound 300, (R)-5-(4-(1-((3-(difluoromethyl)-1-methyl-1H-pyrazol-4-yl)sulfonyl)-1-fluoroethyl)piperidine-1-carboxamido)picolinamide]
- Myosin Activation (AC20) [1]: ++ (++ represents myosin activation value AC20 from 2 μM-5 μM)

Structure (SMILES): Cn1cc(S(=O)(=O)[C@@](C)(F)C2CCN(C(=O)Nc3ccc(C(F)(F)F)nc3)CC2)c(C(F)F)n1 [Compound 261, (R)-4-(1-((3-(difluoromethyl)-1-methyl-1H-pyrazol-4-yl)sulfonyl)-1-fluoroethyl)-N-(6-(trifluoromethyl)pyridin-3-yl)piperidine-1-carboxamide]
- Myosin Activation (AC20) [1]: + (+ represents myosin activation value AC20 > 5 μM)

Structure (SMILES): O=C(Nc1ccnnc1)N1CCC(C(F)(F)S(=O)(=O)c2ccc3ccnn3c2)CC1 [Compound 91, 4-(difluoro(pyrazolo[1,5-a]pyridin-6-ylsulfonyl)methyl)-N-(pyridazin-4-yl)piperidine-1-carboxamide]
- Myosin Activation (AC20) [1]: ++ (++ represents myosin activation value AC20 from 2 μM-5 μM)

Structure (SMILES): Cn1cnc(S(=O)(=O)C(C)(C)C2CCN(C(=O)Nc3ccnnc3)CC2)c1 [Compound 172, 4-(2-((1-methyl-1H-imidazol-4-yl)sulfonyl)propan-2-yl)-N-(pyridazin-4-yl)piperidine-1-carboxamide]
- Myosin Activation (AC20) [1]: + (+ represents myosin activation value AC20 > 5 μM)
